Assay results published in PubChem BioAssay AID1421 (Emory University Molecular Libraries Screening Center, 2008).
Activity calls are given as the source filed them. How the calls were made is not given here.

biological target: Prostaglandin E2 receptor EP2 subtype (Homo sapiens) (UniProt P43116); test: EP2 receptor modulators, dose response, cell-based, human EP2, PGE2 EC50 shift (AID 1421); details: EP2-expressing cells, PGE2 EC50 shift by compound
Sequence (P43116 whole entry, looked up): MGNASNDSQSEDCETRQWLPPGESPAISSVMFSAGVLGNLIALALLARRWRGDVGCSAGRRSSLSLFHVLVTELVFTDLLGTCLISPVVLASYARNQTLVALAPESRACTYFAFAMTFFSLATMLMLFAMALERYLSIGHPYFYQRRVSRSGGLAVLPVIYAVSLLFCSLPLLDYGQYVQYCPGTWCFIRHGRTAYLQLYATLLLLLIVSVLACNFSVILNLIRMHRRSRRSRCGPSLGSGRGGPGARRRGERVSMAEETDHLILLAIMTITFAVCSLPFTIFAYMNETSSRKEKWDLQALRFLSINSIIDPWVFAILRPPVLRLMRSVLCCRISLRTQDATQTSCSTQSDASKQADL

SMILES	outcome
CC(C)C(=O)c1cc2c(cc1NC(=O)c1ccccc1)OCCO2	active
CCOC(=O)c1cc(C)sc1NC(=O)c1ccc(Cl)s1	active
CC(C)Cc1nc(N2CCCCC2)c(C#N)c2c1CCC2	active
COc1ccc(-c2cc(C(F)(F)F)nc(N3CCCCC3)n2)cc1OC	active
Cc1ccc(NCc2ccccc2OCc2ccccc2F)cc1	active
Cc1noc(C)c1CSc1nc2ccccc2c(=O)n1-c1ccccc1	active
Cc1ccc(Cn2c(=O)n(Cc3ccco3)c(=O)c3ccccc32)cc1	active
COC(=O)c1c(NC(=O)C2CC2)sc2c1CCCC2	active
C=CCSc1nc2sc(C)c(C)c2c(=O)n1CC=C	active
CCOC(=O)c1c(NC(=O)c2ccco2)sc2c1CCCCC2	active

same assay, conditions: EP2-expressing cells, PGE2 EC50 shift by compound; measured here: PGE2 EC50 at 6.7 uM compound

SMILES	PGE2 EC50 with compound [nM]
O=C(/C=C/Nc1ccccc1Oc1ccccc1)c1ccco1	2.67
CC(C)C(=O)c1cc2c(cc1NC(=O)c1ccccc1)OCCO2	0.88
COc1ccc(C(=O)COC(=O)C(CCSC)NS(=O)(=O)c2ccc(Cl)cc2)cc1 (configuration not stated)	2.2
CCOC(=O)C1=C(N)OC(C)=C(C#N)C1c1ccco1 (configuration not stated)	1.49
CC(=O)NC(c1ccccc1)c1cccnc1 (configuration not stated)	1.03
CCOC(=O)c1cc(C)sc1NC(=O)c1ccc(Cl)s1	0.73
c1ccc(Oc2nc3ccccc3n3cccc23)cc1	0.86
CC(C)Cc1nc(N2CCCCC2)c(C#N)c2c1CCC2	1.37
Cc1ccccc1NC(=O)CSc1nc(COc2ccccc2)nc2ccccc12	1.24
S=c1[nH]nc(C23CC4CC(CC(C4)C2)C3)n1Cc1ccco1	2.45
CCCn1cnc2sc(CC)cc2c1=O	1.25
COc1cc(OC)c2c(OC)c(-c3ccc4c(c3)OCO4)c(=O)oc2c1	1.43
O=C(c1cccs1)N1N=C(c2ccccc2)CC1c1ccc(O)cc1 (configuration not stated)	0.83
Clc1ccc(Cl)c(-c2ccc(/C=N/c3ncn[nH]3)o2)c1	1.34
CCOc1ccc(OCC)c(NC(=O)CN2CCN(c3ccc(C)cc3C)CC2)c1	0.88
O=C(Nc1nc(-c2cccs2)c(-c2ccccc2)s1)c1ccco1	2.42
COc1ccc(-c2cc(C(F)(F)F)n3nc(C(=O)N(C)Cc4ccccc4)cc3n2)cc1OC	1.03
COc1ccc(-c2cc(C(F)(F)F)nc(N3CCCCC3)n2)cc1OC	0.57
CSc1nc(NCc2ccco2)c2ccccc2n1	1.3
CC(C)Sc1nc2sc3c(c2c2nnc(SCC(=O)NCc4ccco4)n12)CCCC3	0.93
N#Cc1c(N)nc2c3c(sc(=N)c2c1N)NC(=O)CC3c1c(F)cccc1Cl (configuration not stated)	0.74
CCCCC(=O)C1CCN(Cc2ccccc2)CC1	0.89
COc1ccc(C)cc1-n1c(=O)c2ccccc2c2ccccc2c1=O	0.71
CCN(Cc1ccccc1)C(c1cc2cc(C)cc(C)c2[nH]c1=O)c1nnnn1CCOC (configuration not stated)	1.28
Cc1ccc(NCc2ccccc2OCc2ccccc2F)cc1	0.86
CCCCOC(=O)CSc1nc(N)c(C#N)c(-c2ccc(OCC)cc2)c1C#N	1.39

SMILES	PGE2 EC50 with compound [nM]
CCC(c1nnnn1Cc1ccco1)N(Cc1cc2cc(C)cc(C)c2[nH]c1=O)CC1CCCO1 (configuration not stated)	1.56
c1ccc(C2Nc3ccccc3Oc3ccccc32)cc1 (configuration not stated)	0.85
CC1=Nc2ccccc2/C1=C/c1sc(=S)n(-c2cccc(C(=O)O)c2)c1O	0.4
c1cncc(-c2nc(N3CCOCC3)c3c4c(sc3n2)CCC4)c1	1.15
CC(Sc1nc2ccccc2n1C)C(=O)NC(c1ccccc1)c1ccccc1 (configuration not stated)	1.24
CCOC(=O)CSc1nc(Cc2ccccc2)nc2ccccc12	1.15
Cc1noc(C)c1CSc1nc2ccccc2c(=O)n1-c1ccccc1	1.3
COc1cccc(-c2nc(N3CC(C)CC(C)C3)c3ccccc3n2)c1O (configuration not stated)	1.33
O=C(Nc1ccccc1N1CCOCC1)c1ccc2ccccc2n1	0.82
Cc1sc2ncnc(Sc3ccccc3C(=O)O)c2c1C	2.7
CCOC(=O)C(Cc1ccccc1)(NC(C)=O)C(=O)OCC	1.39
Cc1ccc(Cn2c(=O)n(Cc3ccco3)c(=O)c3ccccc32)cc1	0.78
COC(=O)c1c(NC(=O)C2CC2)sc2c1CCCC2	0.95
C=CCSc1nc2sc(C)c(C)c2c(=O)n1CC=C	0.83
Cc1ccc(S(=O)(=O)c2ccc(Oc3cccc(C)c3)cc2)cc1	1.41
CCCOP(=O)(OCCC)c1nc(-c2ccccc2)oc1NCc1ccccc1	1.01
Cc1cc(C)cc(OC2CCCCC2NS(=O)(=O)c2ccccc2)c1 (configuration not stated)	1.62
CC(/C=C1\SC(=S)N(C(C(=O)O)C(C)C)C1=O)=C\c1ccccc1 (configuration not stated)	0.86
Cc1ccc(N(Cc2ccccc2)Cc2ccccc2)cc1	1.7
CCN(CCO)c1ncnc2c1sc1nc(C(C)C)c3c(c12)CC(C)(C)OC3	0.69
C/C(CCC(C)C)=N\NC(=S)NCc1ccccc1	0.88
O=c1c2c(n3cnnc3n1C1CCCCC1)-c1ccccc1CC21CCCCC1	0.33
O=c1c2ccccc2nc(N2CCCC2)n1-c1ccc(Cl)cc1	2.64
CCOC(=O)c1c(NC(=O)c2ccco2)sc2c1CCCCC2	0.87
O=C(Oc1ccc(-c2nccc(-c3ccccn3)n2)cc1)c1cccc(C(F)(F)F)c1	1.44
CC1(C)CC2CC(C)(CN2c2ncnc3ccc(Br)cc23)C1 (configuration not stated)	1.52
